Data reported in patent US20120077863A1, “GUANIDINO-SUBSTITUTED BI-AND POLYPHENYLS AS SMALL MOLECULE CARRIERS” (UCL Business PLC, priority 2009, published 2012).

Target: GAPD siRNA
Assay: Isothermal calorimetry (ITC) binding of SMOC to siRNA
Conditions: 6G-SMOC 250 μM in syringe, siRNA 3.5 μM in cell, FIG. 2
Procedure: An isothermal calorimetry experiment (ITC) was carried out to analyse the strength of the binding between the 6G-SMOG compound shown below and siRNA targeted to the […].
6G-SMOC at a concentration of 250 μM was loaded into the syringe of a Microcal VP-ITC calorimeter (450 μl), and the cell (1.8 ml) filled with GAPD siRNA (Dharmacon RNAi Technologies) at a concentration of 3.5 μM. A total of 37 injections of 8 μl each were made at 4 minute intervals to ensure total saturation of the siRNA. The binding curve was plotted using Origin 6.0 (Microcal) and the binding constants calculated.

Kd: ~80 µM
SMILES: N=C(N)NCCOc1cccc(-c2ccc(-c3cccc(OCCNC(=N)N)c3OCCNC(=N)N)c(OCCNC(=N)N)c2OCCNC(=N)N)c1OCCNC(=N)N [6G-SMOC]
